Tests used:
[1] = biological target: T1, alternative-amplification pathway C3 convertase on EAC4b,3b (Homo sapiens, UniProt P00751+P01024); experiment: Inhibition of generation of alternative-amplification pathway C3 convertase (lysis of EAC4b,3b); type: biochemical, sheep erythrocyte
T1 construct: C3bBb(P) formation read by lysis with rat serum-EDTA
Description: This example illustrates the activity of heparin and heparin-oligosaccharides to inhibit generation of the alternative-amplification pathway C3 convertase. The method described in Weiler et al., J. Exp. Med. 147: 409-421, 1978; Weiler, Immunopharmacology 6: 245-255, 1983; and Sharath et al., Immunopharmacology 9: 73-83, 1985, was used. Briefly, inhibition was examined in experiments that used EAC4b,3b which were prepared to have high, intermediate, and low amounts of C3 on the cell surface. EAC4b,3b^100, EAC4b,3b^20, and EAC4b,3b^5 were produced using a C3 input of 100 μg, 20 μg, and 5 μg per 10^9 EAC4b,2a cellular intermediates, respectively. Complement assay buffer (DGVB^++) 100 μL, alone was added to tubes used for the reagent blank, no inhibition, and 100% lysis; or complement assay buffer containing a heparin or heparin-oligosaccharide solution was added to the remaining tubes. At time zero, 100 μl of complement assay buffer containing a suspension of 1×10^7 EAC4b,3b, an excess amount of P and D (100 ng P), and an amount of B needed to lyse the noninhibited tubes at an average of 1 hemolytic event per cell (0.03 ng B for EAC4b,3b^100, 0.15 ng B for EAC4b,3b^20, and 0.50 ng B for EAC4b,3b^5) was added to each tube. The tubes used for the reagent blank contained no B. The mixtures were incubated for 30 minutes at 30° C. with shaking. Then, 300 μL of a 1:20 dilution of rat serum in 40 mM EDTA was added to each tube and incubation was continued with shaking for 60 minutes at 37° C. Saline (1.5 mL) was then added to each tube, except the 100% tube which was lysed with 1.5 mL of water in place of the saline. Finally, the contents of the tubes were mixed, centrifuged and the absorbance of the supernatant was measured at 414 nm.
The percent lysis, the average number of hemolytic sites per cell (Z), and the percent inhibition were then calculated. Data are expressed as either percent inhibition or as 100 times the ED50 (the amount of heparin resulting in 50% inhibition) for heparin divided by the ED50 for heparin-oligosaccharide. Concentration of heparin and heparin-oligosaccharides are expressed as micrograms per 1×10^7 cellular intermediates. The volume of the reaction tubes during convertase generation varied between 0.2 mL and 0.3 mL; the number of cellular intermediates was held at 1×10^7 per tube. The amount of lysis (Z) seen in the nonhibited tube was relatively independent of the volume of buffer present in the tube during convertase generation. Similarly, the amount of inhibition of convertase generation was independent of the volume of buffer present in the tube during convertase generation.

factor Xa = experiment: Antithrombin III mediated anti-factor Xa activity, purified plasma proteins; type: biochemical; conditions: standard curve using heparin (Mr avg 14,000), 167 units/mg
Description: (§1) This example illustrates the anticoagulant activity of each heparin and heparin-oligosaccharide fragment. Anticoagulant activity was determined by aPTT (activated thromboplastin time) (Linhardt et al., J. Biol. Chem. 257: 7310-13, 1982). Antithrombin III-mediated anti-factor IIa and antifactor Xa activity was measured using purified plasma proteins as described in Linhardt et al. and in Table 2. […] Two bovine heparins had 106% and 124% of standard porcine heparin's activity and the low molecular weight heparin had 100% of standard porcine heparin's activity on complement activation.

[2] = test system: T2, factor IIa (Homo sapiens); experiment: Antithrombin III mediated anti-factor IIa activity, purified plasma proteins; type: biochemical; conditions: standard curve using heparin (Mr avg 14,000), 167 units/mg
T2 construct: anti-factor IIa; from tissue
Description: as §1
(§2) The anticoagulant activity of heparin-oligosaccharides and commercial heparins measured by antifactor IIa assays are plotted against their ability to inhibit complement activation in FIG. 5. The porcine heparins, bovine heparins, and low molecular heparins cluster, showing only minor differences in activities.

[3] = test system: aPTT (activated thromboplastin time); experiment: Anticoagulant activity by aPTT; type: biochemical; conditions: standard curve using heparin (Mr avg 14,000), 167 units/mg
Description: as §1, §2

T2 sequence (P01008 33-464): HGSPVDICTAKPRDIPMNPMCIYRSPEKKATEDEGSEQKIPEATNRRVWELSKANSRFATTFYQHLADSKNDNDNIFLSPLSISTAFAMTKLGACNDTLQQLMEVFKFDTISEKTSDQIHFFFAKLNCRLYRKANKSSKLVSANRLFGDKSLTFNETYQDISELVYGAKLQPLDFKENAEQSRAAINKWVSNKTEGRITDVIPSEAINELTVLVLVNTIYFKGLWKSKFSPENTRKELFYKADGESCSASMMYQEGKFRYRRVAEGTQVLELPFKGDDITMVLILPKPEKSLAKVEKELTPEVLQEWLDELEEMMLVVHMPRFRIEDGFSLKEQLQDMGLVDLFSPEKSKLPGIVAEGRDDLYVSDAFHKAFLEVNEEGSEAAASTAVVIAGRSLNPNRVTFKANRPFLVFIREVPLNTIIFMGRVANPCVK
T1 sequence (P01024 23-1663): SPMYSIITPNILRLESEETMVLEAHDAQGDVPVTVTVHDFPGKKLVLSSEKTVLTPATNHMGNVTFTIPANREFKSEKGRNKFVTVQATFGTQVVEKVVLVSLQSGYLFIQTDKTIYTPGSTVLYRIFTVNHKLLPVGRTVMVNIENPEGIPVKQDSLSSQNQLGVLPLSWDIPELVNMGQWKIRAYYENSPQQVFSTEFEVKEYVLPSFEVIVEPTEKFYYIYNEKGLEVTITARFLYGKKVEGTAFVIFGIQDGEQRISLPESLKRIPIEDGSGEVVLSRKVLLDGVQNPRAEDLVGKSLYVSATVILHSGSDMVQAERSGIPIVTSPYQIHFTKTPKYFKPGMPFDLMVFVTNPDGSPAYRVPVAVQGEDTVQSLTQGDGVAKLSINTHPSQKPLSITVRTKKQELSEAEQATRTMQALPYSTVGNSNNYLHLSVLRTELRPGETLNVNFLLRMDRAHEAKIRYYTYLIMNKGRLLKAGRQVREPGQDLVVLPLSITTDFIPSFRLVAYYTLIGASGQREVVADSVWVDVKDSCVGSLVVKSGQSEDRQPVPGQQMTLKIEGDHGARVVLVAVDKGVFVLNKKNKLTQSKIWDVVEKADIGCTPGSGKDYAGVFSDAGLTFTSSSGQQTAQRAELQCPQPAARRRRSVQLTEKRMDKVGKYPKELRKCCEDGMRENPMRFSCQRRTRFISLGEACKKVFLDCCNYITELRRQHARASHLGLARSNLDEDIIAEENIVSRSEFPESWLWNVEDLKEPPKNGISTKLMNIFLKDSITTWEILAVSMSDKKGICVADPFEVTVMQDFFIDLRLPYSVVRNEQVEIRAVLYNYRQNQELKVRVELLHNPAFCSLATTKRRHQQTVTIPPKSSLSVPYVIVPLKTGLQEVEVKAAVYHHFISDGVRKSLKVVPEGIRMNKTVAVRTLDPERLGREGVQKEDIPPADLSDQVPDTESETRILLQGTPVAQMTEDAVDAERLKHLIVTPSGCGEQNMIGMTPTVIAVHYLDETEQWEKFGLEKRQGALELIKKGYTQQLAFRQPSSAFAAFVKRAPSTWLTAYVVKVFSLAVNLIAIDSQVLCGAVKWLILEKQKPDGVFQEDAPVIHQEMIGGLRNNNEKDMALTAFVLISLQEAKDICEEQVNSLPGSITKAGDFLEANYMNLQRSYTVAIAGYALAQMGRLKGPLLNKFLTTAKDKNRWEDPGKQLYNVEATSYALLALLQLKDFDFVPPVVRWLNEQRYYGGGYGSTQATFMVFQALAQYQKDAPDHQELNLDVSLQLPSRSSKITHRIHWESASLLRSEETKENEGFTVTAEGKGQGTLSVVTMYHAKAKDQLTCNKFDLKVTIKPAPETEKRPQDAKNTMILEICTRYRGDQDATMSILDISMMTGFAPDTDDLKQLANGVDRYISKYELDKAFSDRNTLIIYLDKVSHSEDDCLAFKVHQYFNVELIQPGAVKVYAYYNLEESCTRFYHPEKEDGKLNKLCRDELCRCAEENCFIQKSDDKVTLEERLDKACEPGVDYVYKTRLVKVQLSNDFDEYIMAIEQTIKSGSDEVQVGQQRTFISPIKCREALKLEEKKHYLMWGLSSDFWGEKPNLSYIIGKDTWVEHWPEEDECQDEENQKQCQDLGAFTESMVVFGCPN
T1 sequence (P00751 26-764): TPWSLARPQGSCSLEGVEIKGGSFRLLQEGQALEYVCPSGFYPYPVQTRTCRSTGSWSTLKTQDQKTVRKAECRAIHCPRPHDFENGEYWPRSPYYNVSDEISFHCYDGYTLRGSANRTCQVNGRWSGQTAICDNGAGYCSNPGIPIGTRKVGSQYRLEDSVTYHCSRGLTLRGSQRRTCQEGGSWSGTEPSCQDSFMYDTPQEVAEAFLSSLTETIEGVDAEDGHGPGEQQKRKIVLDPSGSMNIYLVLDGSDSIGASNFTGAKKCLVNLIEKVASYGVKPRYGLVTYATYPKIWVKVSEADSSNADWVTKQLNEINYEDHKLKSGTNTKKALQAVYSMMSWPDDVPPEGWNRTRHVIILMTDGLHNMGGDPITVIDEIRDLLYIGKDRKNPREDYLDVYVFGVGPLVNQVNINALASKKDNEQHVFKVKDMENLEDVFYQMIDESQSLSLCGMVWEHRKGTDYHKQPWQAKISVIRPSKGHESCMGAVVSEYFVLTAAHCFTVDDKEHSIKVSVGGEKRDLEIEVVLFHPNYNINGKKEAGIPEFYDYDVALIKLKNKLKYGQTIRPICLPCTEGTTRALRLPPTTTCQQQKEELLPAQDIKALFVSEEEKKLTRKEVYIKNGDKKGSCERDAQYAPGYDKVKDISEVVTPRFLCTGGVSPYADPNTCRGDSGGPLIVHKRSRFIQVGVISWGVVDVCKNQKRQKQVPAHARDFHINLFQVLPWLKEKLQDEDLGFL
T1 sequence (P27918 28-469 partner): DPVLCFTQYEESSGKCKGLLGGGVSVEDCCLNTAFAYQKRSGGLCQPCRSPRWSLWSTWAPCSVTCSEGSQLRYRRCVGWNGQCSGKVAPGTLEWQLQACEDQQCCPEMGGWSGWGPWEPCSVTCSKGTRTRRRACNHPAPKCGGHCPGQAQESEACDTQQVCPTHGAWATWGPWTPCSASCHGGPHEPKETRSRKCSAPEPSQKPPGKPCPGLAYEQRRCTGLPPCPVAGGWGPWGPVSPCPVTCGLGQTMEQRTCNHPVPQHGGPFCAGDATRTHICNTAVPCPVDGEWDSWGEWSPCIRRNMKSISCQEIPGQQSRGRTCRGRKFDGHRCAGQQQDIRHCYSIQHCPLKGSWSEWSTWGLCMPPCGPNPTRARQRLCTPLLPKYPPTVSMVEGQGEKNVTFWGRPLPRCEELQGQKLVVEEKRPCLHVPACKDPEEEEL
T1 sequence (P00746 26-253 partner): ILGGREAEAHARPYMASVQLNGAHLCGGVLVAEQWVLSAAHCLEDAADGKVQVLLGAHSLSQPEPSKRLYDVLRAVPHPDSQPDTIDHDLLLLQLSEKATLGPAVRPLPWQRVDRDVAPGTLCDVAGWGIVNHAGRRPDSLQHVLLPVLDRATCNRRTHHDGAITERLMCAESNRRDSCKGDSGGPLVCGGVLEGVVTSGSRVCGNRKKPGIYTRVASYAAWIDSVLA

SMILES | Complement activation inhibitory activity [1] | Anticoagulant ACTIVITY Antithrombin III mediated Anti-factor IIa [2] [units/μmole] | Anticoagulant ACTIVITY Antithrombin III mediated Anti-factor Xa (factor Xa) [units/μmole] | Anticoagulant ACTIVITY aPTT [3] [units/μmole]
O=C(O)C1=C[C@H](O)[C@@H](OS(=O)(=O)O)[C@H](O[C@H]2[C@H](O)[C@@H](NS(=O)(=O)O)C(O)O[C@@H]2COS(=O)(=O)O)O1 (stereo partly drawn) [compound 2, ΔUAp2S(1→4)-α-D-GlcNp2S6S] | low activity | < 1 | < 0.1 | < 1
O=C(O)C1=CC(O)C(OS(=O)(=O)O)C(OC2C(COS(=O)(=O)O)OC(OC3C(C(=O)O)OC(OC4C(COS(=O)(=O)O)OC(OC5C(C(=O)O)OC(OC6C(COS(=O)(=O)O)OC(OC7C(C(=O)O)OC(OC8C(COS(=O)(=O)O)OC(OC9C(C(=O)O)OC(OC%10C(COS(=O)(=O)O)OC(O)C(NS(=O)(=O)O)C%10O)C(OS(=O)(=O)O)C9O)C(NS(=O)(=O)O)C8O)C(OS(=O)(=O)O)C7O)C(NS(=O)(=O)O)C6O)C(OS(=O)(=O)O)C5O)C(NS(=O)(=O)O)C4O)C(OS(=O)(=O)O)C3O)C(NS(=O)(=O)O)C2O)O1 (centres unmarked) [10D] |  | < 3 | 136 | 54
O=C(O)C1=CC(O)C(OS(=O)(=O)O)C(OC2C(COS(=O)(=O)O)OC(OC3C(C(=O)O)OC(OC4C(COS(=O)(=O)O)OC(OC5C(C(=O)O)OC(OC6C(COS(=O)(=O)O)OC(OC7C(C(=O)O)OC(OC8C(COS(=O)(=O)O)OC(O)C(NS(=O)(=O)O)C8O)C(OS(=O)(=O)O)C7O)C(NS(=O)(=O)O)C6O)C(OS(=O)(=O)O)C5O)C(NS(=O)(=O)O)C4O)C(OS(=O)(=O)O)C3O)C(NS(=O)(=O)O)C2O)O1 (centres unmarked) [8D] |  | < 3 | 32 | 22
O=C(O)C1=C[C@H](O)[C@@H](OS(=O)(=O)O)[C@H](O[C@H]2[C@H](O)[C@@H](NS(=O)(=O)O)[C@@H](O[C@H]3[C@H](O)[C@@H](OS(=O)(=O)O)[C@H](O[C@H]4[C@H](O)[C@@H](NS(=O)(=O)O)C(O)O[C@@H]4COS(=O)(=O)O)O[C@H]3C(=O)O)O[C@@H]2CO)O1 (stereo partly drawn) [4A, ΔUAp2S(1→4)-α-D-GlcNp2S(1→4)-α-L-IdoAp2S-α-D-GlcNp2S6S] | low activity | < 1 | < 0.1 | 2
O=C(O)C1=CC(O)C(OS(=O)(=O)O)C(OC2C(COS(=O)(=O)O)OC(OC3C(C(=O)O)OC(OC4C(COS(=O)(=O)O)OC(OC5C(C(=O)O)OC(OC6C(COS(=O)(=O)O)OC(O)C(NS(=O)(=O)O)C6O)C(OS(=O)(=O)O)C5O)C(NS(=O)(=O)O)C4O)C(OS(=O)(=O)O)C3O)C(NS(=O)(=O)O)C2O)O1 (centres unmarked) [6D] |  | < 2 | 4 | 11

Further lines, with some results ahead:

Complement activation inhibitory activity [1] | Anticoagulant ACTIVITY Antithrombin III mediated Anti-factor IIa [2] [units/μmole] | SMILES | Anticoagulant ACTIVITY Antithrombin III mediated Anti-factor Xa (factor Xa) [units/μmole] | Anticoagulant ACTIVITY aPTT [3] [units/μmole]
low activity | < 2 | O=C(O)C1=C[C@H](O)[C@@H](OS(=O)(=O)O)[C@H](O[C@H]2[C@H](O)[C@@H](NS(=O)(=O)O)[C@@H](O[C@H]3[C@H](O)[C@@H](O)[C@H](O[C@H]4[C@H](O)[C@@H](NS(=O)(=O)O)C(O)O[C@@H]4COS(=O)(=O)O)O[C@@H]3C(=O)O)O[C@@H]2COS(=O)(=O)O)O1 (stereo partly drawn) [4B, ΔUAp2S(1→4)-α-D-GlcNp2S6S(1→4)-β-D-GlcAp(1→4)-α-D-GlcNp2S6S] | 0.1 | 2
low activity | < 2 | O=C(O)C1=C[C@H](O)[C@@H](OS(=O)(=O)O)[C@H](O[C@H]2[C@H](O)[C@@H](NS(=O)(=O)O)[C@@H](O[C@H]3[C@H](O)[C@@H](OS(=O)(=O)O)[C@H](O[C@H]4[C@H](O)[C@@H](NS(=O)(=O)O)C(O)O[C@@H]4COS(=O)(=O)O)O[C@H]3C(=O)O)O[C@@H]2COS(=O)(=O)O)O1 (stereo partly drawn) [4C, ΔUAp2S(1→4)-α-D-GlcNp2S6S(1→4)-α-L-IdoAp2S(1→4)-α-D-GlcNp2S6S] | 3 | 2
low activity | 11 | CC(=O)NC1C(OC2C(C(=O)O)OC(OC3C(COS(=O)(=O)O)OC(O)C(NS(=O)(=O)O)C3OS(=O)(=O)O)C(O)C2O)OC(COS(=O)(=O)O)C(OC2OC(C(=O)O)C(OC3OC(COS(=O)(=O)O)C(OC4OC(C(=O)O)=CC(O)C4OS(=O)(=O)O)C(O)C3NS(=O)(=O)O)C(O)C2O)C1O [6C, ΔUAp2S(1→4)-α-D-GlcNp2S6S(1→4)-α-L-IdoAp(1→4)-α-D-GlcNAcp6S-(1→4)-β-D-GlcAp( 1→4)-α-D-GlcNp2S3S6S] | 26 | 26
